Experimental data reported in BindingDB's records for patent US9796704 (SYMPHONY EVOLUTION, INC., 2017).

What was measured:
Experiment in all cases: AlphaScreen Assay
Ephrin type-A receptor 2 = Ephrin type-A receptor 2 (Homo sapiens, UniProt P29317)
Experimental: (§1) In AlphaScreen, when the donor and acceptor beads are close in proximity, a series of photochemical events will give rise to a fluorescent signal upon light activation. Here we use biotinylated poly-(Glu, Tyr) 4:1 as the kinase substrate, streptavidin-coated donor beads and anti-phosphortyrosine antibody PY100-coated acceptor beads. […] Compounds, ATP, biotinylated poly-(Glu, Tyr) and kinases are mixed in a volume of 20 μL for 1 hr at ambient temperature using Greiner 384-well white clear bottom medium binding plates. Then 10 uL solution containing 15-30 mg/mL AlphaScreen beads, 75 mM Hepes, pH 7.4, 300 mM NaCl, 120 mM EDTA, 0.3% BSA and 0.03% Tween-20 is added to each well. After 2-16 hr incubation of the beads, plates are read in a Perkin Elmer AlphaQuest reader (available from PerkinElmer Life and Analytical Sciences, Inc., of Boston Mass.).

[1] = biological target: Vascular endothelial growth factor receptor 2 (Homo sapiens, UniProt P35968)
Experimental: as §1

Ephrin type-B receptor 4 = biological target: T1, Ephrin type-B receptor 4 (Homo sapiens, UniProt P54760)
T1 sequence (P54760 whole entry): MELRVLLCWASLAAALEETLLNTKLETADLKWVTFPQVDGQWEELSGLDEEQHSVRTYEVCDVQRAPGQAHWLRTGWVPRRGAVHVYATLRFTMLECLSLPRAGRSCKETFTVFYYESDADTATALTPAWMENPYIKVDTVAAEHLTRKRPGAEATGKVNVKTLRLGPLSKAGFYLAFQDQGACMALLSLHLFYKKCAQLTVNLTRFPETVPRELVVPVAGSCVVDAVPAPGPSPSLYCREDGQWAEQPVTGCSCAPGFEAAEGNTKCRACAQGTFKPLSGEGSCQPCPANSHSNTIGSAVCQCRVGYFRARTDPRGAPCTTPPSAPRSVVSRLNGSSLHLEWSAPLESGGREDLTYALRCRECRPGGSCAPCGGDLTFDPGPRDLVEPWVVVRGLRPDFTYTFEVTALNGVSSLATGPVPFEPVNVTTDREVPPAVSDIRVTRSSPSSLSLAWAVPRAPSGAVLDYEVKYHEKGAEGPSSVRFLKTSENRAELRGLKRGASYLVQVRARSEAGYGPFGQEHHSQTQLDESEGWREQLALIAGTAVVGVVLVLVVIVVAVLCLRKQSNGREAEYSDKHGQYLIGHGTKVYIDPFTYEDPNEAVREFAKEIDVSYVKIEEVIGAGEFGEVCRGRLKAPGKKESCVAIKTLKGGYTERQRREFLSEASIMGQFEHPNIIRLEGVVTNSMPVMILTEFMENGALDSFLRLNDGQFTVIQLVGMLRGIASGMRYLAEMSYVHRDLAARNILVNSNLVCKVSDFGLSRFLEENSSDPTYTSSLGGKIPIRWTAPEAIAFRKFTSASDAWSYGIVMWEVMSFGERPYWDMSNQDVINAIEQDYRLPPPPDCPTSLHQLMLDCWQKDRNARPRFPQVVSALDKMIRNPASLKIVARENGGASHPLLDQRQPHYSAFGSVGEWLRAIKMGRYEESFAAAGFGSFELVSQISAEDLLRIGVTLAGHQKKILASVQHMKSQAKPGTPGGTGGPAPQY
Experimental: as §1

Chain of Vascular endothelial growth factor receptor 2 (P35968 whole entry): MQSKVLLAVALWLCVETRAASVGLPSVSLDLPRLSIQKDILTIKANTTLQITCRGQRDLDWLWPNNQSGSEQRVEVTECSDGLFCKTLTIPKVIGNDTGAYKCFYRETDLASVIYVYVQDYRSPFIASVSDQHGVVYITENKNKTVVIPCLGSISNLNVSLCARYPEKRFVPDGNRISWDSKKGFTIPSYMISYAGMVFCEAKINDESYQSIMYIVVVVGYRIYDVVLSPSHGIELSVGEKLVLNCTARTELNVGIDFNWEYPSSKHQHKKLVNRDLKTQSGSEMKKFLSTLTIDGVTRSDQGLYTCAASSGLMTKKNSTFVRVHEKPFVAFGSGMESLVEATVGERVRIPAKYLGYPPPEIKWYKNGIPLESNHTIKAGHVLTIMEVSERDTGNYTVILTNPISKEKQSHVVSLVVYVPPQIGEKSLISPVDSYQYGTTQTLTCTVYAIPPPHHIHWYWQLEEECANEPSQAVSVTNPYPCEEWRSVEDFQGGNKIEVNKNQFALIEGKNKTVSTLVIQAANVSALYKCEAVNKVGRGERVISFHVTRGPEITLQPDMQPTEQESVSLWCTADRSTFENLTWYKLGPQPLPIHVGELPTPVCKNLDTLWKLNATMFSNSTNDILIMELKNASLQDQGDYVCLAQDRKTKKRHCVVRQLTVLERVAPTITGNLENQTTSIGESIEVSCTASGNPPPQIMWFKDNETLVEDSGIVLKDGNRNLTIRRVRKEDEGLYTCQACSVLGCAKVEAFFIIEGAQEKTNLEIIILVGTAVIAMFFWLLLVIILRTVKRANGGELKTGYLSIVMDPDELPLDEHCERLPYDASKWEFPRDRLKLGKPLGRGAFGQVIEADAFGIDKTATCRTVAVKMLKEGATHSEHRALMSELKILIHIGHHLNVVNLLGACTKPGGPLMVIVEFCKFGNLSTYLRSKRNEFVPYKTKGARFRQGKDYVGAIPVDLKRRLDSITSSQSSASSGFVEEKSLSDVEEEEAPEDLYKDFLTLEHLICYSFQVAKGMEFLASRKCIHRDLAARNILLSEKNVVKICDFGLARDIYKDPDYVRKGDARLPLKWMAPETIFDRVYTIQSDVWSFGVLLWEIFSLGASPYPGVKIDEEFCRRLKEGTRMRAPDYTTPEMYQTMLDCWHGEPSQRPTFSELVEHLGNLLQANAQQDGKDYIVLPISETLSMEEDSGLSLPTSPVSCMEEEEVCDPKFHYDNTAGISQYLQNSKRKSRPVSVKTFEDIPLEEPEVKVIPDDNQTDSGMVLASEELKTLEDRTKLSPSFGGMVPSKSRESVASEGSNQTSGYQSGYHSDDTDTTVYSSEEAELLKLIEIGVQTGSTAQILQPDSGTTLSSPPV
Chain of Ephrin type-A receptor 2 (P29317 whole entry): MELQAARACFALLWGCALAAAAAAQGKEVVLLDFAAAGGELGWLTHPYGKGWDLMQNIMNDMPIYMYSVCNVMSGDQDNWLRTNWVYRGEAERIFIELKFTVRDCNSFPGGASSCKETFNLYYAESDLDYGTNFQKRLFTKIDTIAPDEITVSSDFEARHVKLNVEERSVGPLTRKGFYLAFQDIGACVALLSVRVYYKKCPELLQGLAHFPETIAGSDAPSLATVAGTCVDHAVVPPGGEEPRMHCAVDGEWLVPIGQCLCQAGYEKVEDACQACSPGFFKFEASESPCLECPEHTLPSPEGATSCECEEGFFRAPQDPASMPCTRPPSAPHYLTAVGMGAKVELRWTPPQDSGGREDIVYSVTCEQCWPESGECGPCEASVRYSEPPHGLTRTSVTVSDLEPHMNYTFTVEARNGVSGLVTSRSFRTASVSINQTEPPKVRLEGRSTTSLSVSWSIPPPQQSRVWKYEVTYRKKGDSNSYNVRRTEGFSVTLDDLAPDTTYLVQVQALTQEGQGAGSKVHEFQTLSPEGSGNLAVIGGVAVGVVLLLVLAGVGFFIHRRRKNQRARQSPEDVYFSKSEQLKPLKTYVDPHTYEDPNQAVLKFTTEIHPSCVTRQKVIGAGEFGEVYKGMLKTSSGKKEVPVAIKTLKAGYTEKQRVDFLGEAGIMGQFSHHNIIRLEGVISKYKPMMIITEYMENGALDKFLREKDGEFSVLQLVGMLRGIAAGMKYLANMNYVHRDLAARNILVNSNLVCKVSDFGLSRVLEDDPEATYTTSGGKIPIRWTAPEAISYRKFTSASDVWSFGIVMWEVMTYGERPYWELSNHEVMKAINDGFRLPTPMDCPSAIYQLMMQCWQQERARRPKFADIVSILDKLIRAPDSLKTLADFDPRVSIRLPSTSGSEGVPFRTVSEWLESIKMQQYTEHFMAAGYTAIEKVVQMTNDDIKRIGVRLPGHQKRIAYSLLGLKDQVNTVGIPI

| IC50 (Ephrin type-A receptor 2) | IC50 [1] | IC50 (Ephrin type-B receptor 4) | SMILES |
| --- | --- | --- | --- |
| in the range around 525 nM | in the range around 525 nM | in the range around 525 nM | COc1cc2c(Nc3cc(F)ccc3F)ncnc2cc1O[C@@H]1CO[C@@H]2[C@H]1OC[C@H]2F [US9796704, Entry 91] |
| in the range around 525 nM | in the range around 525 nM | in the range around 525 nM | COc1cc2c(Nc3cc(Cl)ccc3F)ncnc2cc1O[C@@H]1CO[C@@H]2[C@H]1OC[C@H]2F [US9796704, Entry 93] |
| in the range around 525 nM | in the range around 525 nM | in the range around 525 nM | COc1cc2c(Nc3ccc(F)c(Cl)c3)ncnc2cc1O[C@@H]1CO[C@@H]2[C@H]1OC[C@H]2F [US9796704, Entry 95] |
| in the range around 525 nM | in the range around 525 nM | in the range around 525 nM | COc1cc2c(Nc3c(F)cc(F)cc3F)ncnc2cc1O[C@@H]1CO[C@@H]2[C@H]1OC[C@H]2F [US9796704, Entry 100] |
| in the range around 525 nM | in the range around 525 nM | in the range around 525 nM | COc1cc2c(Nc3cc(F)c(Oc4ccc(Cl)cc4)c(F)c3)ncnc2cc1O[C@@H]1CO[C@@H]2[C@H]1OC[C@H]2F [US9796704, Entry 101] |
| in the range around 525 nM | in the range around 525 nM | in the range around 525 nM | COc1cc2c(Nc3ccc(Br)c(Cl)c3F)ncnc2cc1O[C@@H]1CO[C@@H]2[C@H]1OC[C@H]2F [US9796704, Entry 102] |
| in the range around 525 nM | in the range around 525 nM | in the range around 525 nM | COc1cc2c(Nc3cccc(Cl)c3C)ncnc2cc1O[C@@H]1CO[C@@H]2[C@H]1OC[C@H]2F [US9796704, Entry 110] |
| in the range around 525 nM | in the range around 525 nM | in the range around 525 nM | COc1cc2c(Nc3ccccc3Cl)ncnc2cc1O[C@@H]1CO[C@@H]2[C@H]1OC[C@H]2F [US9796704, Entry 112] |
| in the range around 525 nM | in the range around 525 nM | in the range around 525 nM | COc1cc2c(Nc3ccccc3F)ncnc2cc1O[C@@H]1CO[C@@H]2[C@H]1OC[C@H]2F [US9796704, Entry 113] |
| in the range around 525 nM | in the range around 525 nM | in the range around 525 nM | COc1cc2c(Nc3ccc(Cl)cc3)ncnc2cc1O[C@@H]1CO[C@@H]2[C@H]1OC[C@H]2F [US9796704, Entry 116] |
| in the range around 525 nM | in the range around 525 nM | in the range around 525 nM | COc1cc2c(Nc3ccc(Cl)c(C(F)(F)F)c3)ncnc2cc1O[C@@H]1CO[C@@H]2[C@H]1OC[C@H]2F [US9796704, Entry 121] |
| in the range around 525 nM | in the range around 525 nM | in the range around 525 nM | COc1cc2c(Nc3cccc(C(F)(F)F)c3F)ncnc2cc1O[C@@H]1CO[C@@H]2[C@H]1OC[C@H]2F [US9796704, Entry 123] |
| in the range around 525 nM | in the range around 525 nM | in the range around 525 nM | COc1cc2c(Nc3cc(C(F)(F)F)ccc3Br)ncnc2cc1O[C@@H]1CO[C@@H]2[C@H]1OC[C@H]2F [US9796704, Entry 124] |
| in the range around 525 nM | in the range around 10500 nM | in the range around 525 nM | COc1cc2c(Nc3ccc(F)cc3C(F)(F)F)ncnc2cc1O[C@@H]1CO[C@@H]2[C@H]1OC[C@H]2F [US9796704, Entry 126] |
| in the range around 525 nM | in the range around 525 nM | in the range around 525 nM | COc1cc2c(Nc3ccccc3Br)ncnc2cc1O[C@@H]1CO[C@@H]2[C@H]1OC[C@H]2F [US9796704, Entry 128] |
| in the range around 525 nM | in the range around 525 nM | in the range around 525 nM | COc1cc2c(Nc3ccc(Br)cc3)ncnc2cc1O[C@@H]1CO[C@@H]2[C@H]1OC[C@H]2F [US9796704, Entry 130] |

| IC50 (Ephrin type-A receptor 2) | IC50 [1] | IC50 (Ephrin type-B receptor 4) | SMILES |
| --- | --- | --- | --- |
| in the range around 525 nM | in the range around 525 nM | in the range around 525 nM | COc1cc2c(Nc3ccc(C)c(Br)c3)ncnc2cc1O[C@@H]1CO[C@@H]2[C@H]1OC[C@H]2F [US9796704, Entry 131] |
| in the range around 525 nM | in the range around 525 nM | in the range around 525 nM | COc1cc2c(Nc3cc(C)cc(C)c3)ncnc2cc1O[C@@H]1CO[C@@H]2[C@H]1OC[C@H]2F [US9796704, Entry 133] |
| in the range around 525 nM | in the range around 525 nM | in the range around 525 nM | COc1cc(Nc2ncnc3cc(O[C@@H]4CO[C@@H]5[C@H]4OC[C@H]5F)c(OC)cc23)c(OC)cc1Cl [US9796704, Entry 136] |
| in the range around 525 nM | in the range around 525 nM | in the range around 525 nM | COc1cc2c(Nc3ccc(Cl)c(Cl)c3)ncnc2cc1OCc1cccc2nsnc12 [US9796704, Entry 159] |
| in the range around 525 nM | in the range around 525 nM | in the range around 525 nM | COc1cc2c(Nc3ccc(Cl)c(Cl)c3)ncnc2cc1OCc1nc2ccccc2s1 [US9796704, Entry 162] |
| in the range around 525 nM | in the range around 10500 nM | in the range around 525 nM | COc1cc2c(Nc3ccc(Cl)c(Cl)c3)ncnc2cc1OCc1cnn(-c2ccccc2)c1 [US9796704, Entry 165] |
| in the range around 525 nM | in the range around 525 nM | in the range around 525 nM | COc1cc2c(Nc3ccc(Cl)c(Cl)c3)ncnc2cc1OCc1nc(-c2ccc(Cl)cc2)no1 [US9796704, Entry 168] |
| in the range around 10500 nM | in the range around 525 nM | in the range around 525 nM | COc1cc2c(Nc3ccc(Cl)c(Cl)c3)ncnc2cc1OCc1c(OC)ccc2cc(Br)ccc12 [US9796704, Entry 169] |
| in the range around 10500 nM | in the range around 525 nM | in the range around 525 nM | COc1cc2c(Nc3ccc(Cl)c(Cl)c3)ncnc2cc1OCc1ccc(Cl)nc1 [US9796704, Entry 171] |
| in the range around 525 nM | in the range around 525 nM | in the range around 525 nM | COc1cc2c(Nc3ccc(Cl)c(Cl)c3)ncnc2cc1OCc1csc(C)n1 [US9796704, Entry 173] |
| in the range around 10500 nM | in the range around 525 nM | in the range around 10500 nM | COc1cc2c(Nc3ccc(Cl)c(Cl)c3)ncnc2cc1OCc1cc(Cl)cc2c1OCOC2 [US9796704, Entry 174] |
| in the range around 525 nM | in the range around 525 nM | in the range around 525 nM | COc1cc2c(Nc3ccc(Cl)c(Cl)c3)ncnc2cc1OCC1=CC2C(C(F)(F)F)=NN(C)C2S1 (stereo unspecified) [US9796704, Entry 176] |
| in the range around 525 nM | in the range around 525 nM | in the range around 525 nM | COc1cc2c(Nc3ccc(Cl)c(Cl)c3)ncnc2cc1OCc1cc(-c2ccccc2)no1 [US9796704, Entry 177] |
| in the range around 10500 nM | in the range around 10500 nM | in the range around 10500 nM | COc1cc2c(Nc3ccc(Cl)c(Cl)c3)ncnc2cc1OCc1c(C)cc(C)cc1C [US9796704, Entry 178] |
| in the range around 525 nM | in the range around 525 nM | in the range around 525 nM | COc1ccc(-c2cc(COc3cc4ncnc(Nc5ccc(Cl)c(Cl)c5)c4cc3OC)on2)cc1 [US9796704, Entry 180] |
| in the range around 525 nM | in the range around 525 nM | in the range around 525 nM | COc1cc2c(Nc3ccc(Cl)c(Cl)c3)ncnc2cc1OCc1c(C(F)(F)F)nn(C)c1Oc1ccc(Cl)cc1Cl [US9796704, Entry 181] |
